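Assay format: 96-well plates, 48-hour exposure. Abbreviation: GI50, concentration required for 50% inhibition of growth.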 Calls of active or inactive are those of the source. Cut-off read from the data, not from the text of the source: active = GI50 up to about 1.1 µM and inactive = higher.
Tests used:
Experiment in all cases: NCI anticancer screen, dose series, 48 h
SK-MEL-28 = system: SK-MEL-28
UACC-257 = system: UACC-257
UACC-62 = system: UACC-62
SF-268 = system: SF-268
RXF 393 = system: RXF 393
LOX IMVI = system: LOX IMVI
HL-60 = system: HL-60
HCT-15 = system: HCT-15
SK-OV-3 = system: SK-OV-3
U-251 = system: U-251
CAKI-1 = system: CAKI-1
SR = system: SR
OVCAR-5 = system: OVCAR-5
HCT-116 = system: HCT-116
HOP-92 = system: HOP-92
NCI-H522 = system: NCI-H522
A498 = system: A498

Row | SMILES | GI50 (SK-MEL-28) | GI50 (UACC-257) | GI50 (UACC-62) | GI50 (SF-268) | GI50 (RXF 393) | GI50 (LOX IMVI) | GI50 (HL-60) | GI50 (HCT-15) | GI50 (SK-OV-3) | GI50 (U-251) | GI50 (CAKI-1) | GI50 (SR) | GI50 (OVCAR-5) | GI50 (HCT-116) | GI50 (HOP-92) | GI50 (NCI-H522) | GI50 (A498)
1 | Cn1c(-c2ccccc2)c/c(=N\NS(C)(=O)=O)c2cc(S(=O)(=O)O)ccc21 | > 100 µM (inactive) | > 100 µM (inactive) | > 100 µM (inactive) | > 100 µM (inactive) | > 100 µM (inactive) | > 100 µM (inactive) | > 100 µM (inactive) | > 100 µM | > 100 µM (inactive) | > 100 µM (inactive) | > 100 µM (inactive) | > 100 µM (inactive) | > 100 µM (inactive) | > 100 µM (inactive) | > 100 µM (inactive) | > 100 µM (inactive) | 
2 | COc1ccc(NC(=O)C(C)Oc2ccc(OCC3CCCCC3)cc2)cc1 (stereo unspecified) | > 100 µM (inactive) | 36.6 µM (inactive) | > 100 µM (inactive) | > 100 µM (inactive) | > 100 µM (inactive) | 30.7 µM (inactive) | 42.2 µM (inactive) | 63 µM | > 100 µM (inactive) | > 100 µM (inactive) |  |  |  | > 100 µM (inactive) |  | 25.6 µM (inactive) | > 100 µM (inactive)
3 | CC1(C)CC(C)(C)CC(O)(C2(O)CC(C)(C)CC(C)(C)C2)C1 | > 100 µM (inactive) | > 100 µM (inactive) | > 100 µM (inactive) | > 100 µM (inactive) |  | > 100 µM (inactive) | > 100 µM (inactive) | > 100 µM | > 100 µM (inactive) | > 100 µM (inactive) |  | > 100 µM (inactive) |  | > 100 µM (inactive) |  | > 100 µM (inactive) | 
4 | Cc1nc2c(n1Cc1ccc(F)cc1)C(=O)c1ccccc1C2=O | > 100 µM (inactive) | 26.6 µM (inactive) | 5.25 µM (inactive) | 4.6 µM (inactive) | 14.9 µM (inactive) | 7.18 µM (inactive) | 5.48 µM (inactive) | 4.29 µM | > 100 µM (inactive) | 6.56 µM (inactive) |  | 4.29 µM (inactive) |  | 6.89 µM (inactive) |  | 10.8 µM (inactive) | 
5 | CC1=C(c2cc(C(=O)Nc3cccc(C(F)(F)F)c3)ncn2)Sc2ccccc2N1 | > 100 µM (inactive) | > 100 µM (inactive) | > 100 µM (inactive) | > 100 µM (inactive) |  |  | > 100 µM (inactive) | > 100 µM | > 100 µM (inactive) | > 100 µM (inactive) | > 100 µM (inactive) | > 100 µM (inactive) |  | > 100 µM (inactive) | > 100 µM (inactive) | > 100 µM (inactive) | > 100 µM (inactive)
6 | O=S(=O)(c1ccccc1)C(CN1CCCCC1)S(=O)(=O)c1ccccc1 | > 100 µM (inactive) | > 100 µM (inactive) | > 100 µM (inactive) | > 100 µM (inactive) | > 100 µM (inactive) | > 100 µM (inactive) | > 100 µM (inactive) | > 100 µM | > 100 µM (inactive) | > 100 µM (inactive) | > 100 µM (inactive) | > 100 µM (inactive) | > 100 µM (inactive) |  | > 100 µM (inactive) | > 100 µM (inactive) | 
7 | Cc1ccc(NC(=O)C(=O)C(C(=O)c2ccc3ccccc3c2)C2OC(=O)c3ccccc32)cc1C (stereo unspecified) | 10.3 µM (inactive) | 10 µM (inactive) | 12.4 µM (inactive) | 7.41 µM (inactive) |  | 14.4 µM (inactive) | 8.87 µM (inactive) | 5.02 µM | 26.9 µM (inactive) | 3.92 µM (inactive) | 8.57 µM (inactive) |  | 23.9 µM (inactive) | 11.8 µM (inactive) | 14 µM (inactive) | 3.03 µM (inactive) | 10.4 µM (inactive)
8 | CN(C)c1ccc(/C=C(\NC(=O)c2ccccc2)c2nc3ccc4c(c3[nH]2)C(=O)c2ccccc2C4=O)cc1 | 27.5 µM (inactive) | > 100 µM (inactive) | 35.8 µM (inactive) | 7.14 µM (inactive) | 18.9 µM (inactive) | 20.2 µM (inactive) |  | 34.1 µM | 39 µM (inactive) | 31.5 µM (inactive) | 9.1 µM (inactive) |  | > 100 µM (inactive) | 20.9 µM (inactive) | 12.8 µM (inactive) | 8.79 µM (inactive) | 6.61 µM (inactive)
9 | CC(=O)[O-].Cc1ncc(CO)c(/C=N/NC(N)=S)c1[O-].[Zn+2] | > 100 µM (inactive) | > 100 µM (inactive) | > 100 µM (inactive) | > 100 µM (inactive) | > 100 µM (inactive) | > 100 µM (inactive) | > 100 µM (inactive) | > 100 µM | > 100 µM (inactive) | > 100 µM (inactive) |  | > 100 µM (inactive) | > 100 µM (inactive) | > 100 µM (inactive) |  |  | > 100 µM (inactive)
10 | COc1ccc(OC)c2[nH]c(Sc3c([N+](=O)[O-])ncn3C)nc12 | 24.3 µM (inactive) | 15.3 µM (inactive) | 18.5 µM (inactive) | 26.5 µM (inactive) | 25.2 µM (inactive) | 79.1 µM (inactive) |  | 16 µM | 35.2 µM (inactive) | 28.9 µM (inactive) | 17.1 µM (inactive) |  | 94.6 µM (inactive) | 21.7 µM (inactive) | 16.9 µM (inactive) |  | 31 µM (inactive)

— ChEMBL document CHEMBL1201862, “PubChem BioAssay data set” (2004)
